Experiments:
Prothrombin [1] = target: T1, Prothrombin (Homo sapiens, UniProt P00734); assay: Inhibition of thrombin-catalyzed hydrolysis of a standard substrate
Serine protease 1 = Serine protease 1 (Homo sapiens, UniProt P07477); assay: Binding affinity towards trypsin was determined
Prothrombin [2] = target: T1, Prothrombin; assay: Binding affinity towards thrombin was determined

Chain of Serine protease 1 (P07477 whole entry): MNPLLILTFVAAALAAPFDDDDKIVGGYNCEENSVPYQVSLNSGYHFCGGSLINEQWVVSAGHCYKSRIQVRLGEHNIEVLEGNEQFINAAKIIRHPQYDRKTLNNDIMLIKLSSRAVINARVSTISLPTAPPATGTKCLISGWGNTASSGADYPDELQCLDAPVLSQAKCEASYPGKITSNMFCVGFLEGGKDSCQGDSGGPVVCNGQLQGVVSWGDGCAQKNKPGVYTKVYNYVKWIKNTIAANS

Compound	IC50 (Prothrombin [1]) [nM]	Ki (Serine protease 1) [nM]	Ki (Prothrombin [2]) [nM]
N[C@H]1CC[C@H](CNC(=O)[C@@H]2CCCN2C(=O)C2(O)c3ccccc3-c3ccccc32)CC1	4	860	–
CN1C(=O)C[C@@H](c2cccnc2)[C@@H]1C(=O)N1CCC[C@H]1C(=O)NCC1CCC(N)CC1 (some centres not stated)	60	–	–
NC1CCC(CNC(=O)[C@@H]2CCCN2C(=O)C2c3ccccc3-c3ccccc32)CC1 (some centres not stated)	380	–	–
COc1ccccc1CCC(=O)N1CCC[C@H]1C(=O)NCC1CCC(N)CC1 (some centres not stated)	230	–	–
NC1CCC(CNC(=O)[C@@H]2CCCN2C(=O)C23CC4CC(CC(C4)C2)C3)CC1 (some centres not stated)	120	–	–
NC1CCC(CNC(=O)[C@@H]2CCCN2C(=O)CC2c3ccccc3-c3ccccc32)CC1 (some centres not stated)	106	–	–
NC1CCC(CNC(=O)[C@@H]2CCCN2C(=O)C2CC2(c2ccccc2)c2ccccc2)CC1 (some centres not stated)	190	–	–
NC1CCC(CNC(=O)[C@@H]2CCCN2C(=O)C(Cc2ccc(O)cc2)c2ccccc2)CC1 (some centres not stated)	10	–	2.5
NC1CCC(CNC(=O)[C@@H]2CCCN2C(=O)C2CCc3ccccc3C2)CC1 (some centres not stated)	910	–	–
COc1cc(C(O)C(=O)N2CCC[C@H]2C(=O)NCC2CCC(N)CC2)ccc1O (some centres not stated)	11	–	2.5
CCCCC(CC(=O)N1CCC[C@H]1C(=O)NCC1CCC(N)CC1)c1ccccc1 (some centres not stated)	5	–	–
N#C/C(=C\c1ccccc1)C(=O)N1CCC[C@H]1C(=O)NCC1CCC(N)CC1 (some centres not stated)	140	–	–
NC1CCC(CNC(=O)[C@@H]2CCCN2C(=O)C2COc3ccccc3O2)CC1 (some centres not stated)	100	–	75
CN[C@H](Cc1ccccc1)C(=O)N1CCC[C@H]1C(=O)NC[C@H]1CC[C@H](N)CC1	6	–	4.9
COc1cc(CC(=O)N2CCC[C@H]2C(=O)NCC2CCC(N)CC2)cc(OC)c1OC (some centres not stated)	50	–	–
NC1CCC(CNC(=O)[C@@H]2CCCN2C(=O)C2CC(=O)N3CCc4ccccc4C23)CC1 (some centres not stated)	90	–	–
NC1CCC(CNC(=O)[C@@H]2CCCN2C(=O)C(Cc2ccccc2)c2ccccc2)CC1 (some centres not stated)	57	–	–

From ChEMBL document CHEMBL1131597, “Discovery and development of the novel potent orally active thrombin inhibitor N-(9-hydroxy-9-fluorenecarboxy)prolyl trans-4-aminocyclohexylmethyl amide (L-372,460): coapplication of structure-based design and rapid multiple analogue synthesis on solid support” (J Med Chem, 1998)
